Data published in ChEMBL document CHEMBL4118066, “QSAR-driven design, synthesis and discovery of potent chalcone derivatives with antitubercular activity” (Eur J Med Chem, 2017).
Converted amounts (≈) assume the structure as drawn.

Assays:
[1] = system: Mycobacterium tuberculosis; assay: microbe, parasite or virus in culture; format: functional; conditions: H37Rv ATCC 27294, 168 h
Description: Antitubercular activity against Mycobacterium tuberculosis H37Rv ATCC 27294 after 7 days under normoxic condition by microplate Alamar blue assay

[2] = system: Mycobacterium tuberculosis; assay: Antitubercular activity against Mycobacterium tuberculosis H37Rv ATCC 27294 treated for 10 days under hypoxic condition followed by 28 hrs of normoxic recovery; format: functional
Candida albicans = assay: Antifungal activity against Candida albicans ATCC 90028 after 36 to 48 hrs; format: functional
Escherichia coli = assay: Antibacterial activity against Escherichia coli ATCC 25922 after 16 to 20 hrs; format: functional
Staphylococcus aureus = assay: Antibacterial activity against Staphylococcus aureus ATCC 29213 after 16 to 20 hrs; format: functional
[3] = system: Mycolicibacterium smegmatis; assay: Antimycobacterial activity against Mycobacterium smegmatis ATCC MC2155 after 7 days under normoxic condition by microplate Alamar blue assay; format: functional; conditions: str. MC2 155, 168 h
in vitro = conditions: monkey
Description: Selectivity index, ratio of IC50 for African green monkey Vero cells to MIC90 for Mycobacterium tuberculosis H37Rv ATCC 27294 under normoxic condition

[4] = system: Mycobacteroides abscessus; assay: Antimycobacterial activity against Mycobacterium abscessus ATCC 19977 after 7 days under normoxic condition by microplate Alamar blue assay; format: functional; conditions: ATCC 19977, 168 h
Mycobacteroides chelonae = assay: Antimycobacterial activity against Mycobacterium chelonae ATCC 35752 after 7 days under normoxic condition by microplate Alamar blue assay; format: functional; conditions: ATCC 35752, 168 h
Mycobacterium marinum = assay: Antimycobacterial activity against Mycobacterium marinum ATCC 927 after 7 days under normoxic condition by microplate Alamar blue assay; format: functional; conditions: ATCC 927, 168 h
Mycobacterium avium = assay: Antimycobacterial activity against Mycobacterium avium ATCC 15769 after 7 days under normoxic condition by microplate Alamar blue assay; format: functional; conditions: ATCC 15769, 168 h
Mycobacterium kansasii = assay: Antimycobacterial activity against Mycobacterium kansasii ATCC 12478 after 7 days under normoxic condition by microplate Alamar blue assay; format: functional; conditions: ATCC 12478, 168 h

Structure (SMILES) | MIC90 [1] [µM] | MIC90 [2] [µM] | MIC90 (Candida albicans) [µM] | MIC90 (Escherichia coli) [µM] | MIC90 (Staphylococcus aureus) [µM] | MIC90 [3] [µM] | selectivity ratio (in vitro; Vero cells) | MIC90 [4] [µM] | MIC90 (Mycobacteroides chelonae) [µM] | MIC90 (Mycobacterium marinum) [µM] | MIC90 (Mycobacterium avium) [µM] | MIC90 (Mycobacterium kansasii) [µM] | selectivity ratio (in vitro; vero)
O=C(/C=C/c1ccc([N+](=O)[O-])o1)c1ccc(N2CCOCC2)cc1 | 0.81 (≈ 0.266 µg/mL) | 9.85 (≈ 3.23 µg/mL) | > 10 | > 10 | 1.19 (≈ 0.391 µg/mL) | > 10 | 123 |  |  |  |  |  | 
COc1ccc(/C=C/C(=O)c2cccc(Br)c2)cc1 | 8.54 (≈ 2.71 µg/mL) | 8.2 (≈ 2.6 µg/mL) | > 10 | > 10 | > 10 | > 10 | 11 | > 10 | > 10 | > 10 | 9.82 (≈ 3.11 µg/mL) | 9.21 (≈ 2.92 µg/mL) | 
COc1ccc(/C=C/C(=O)c2cccc(I)c2)cc1 | 4.9 (≈ 1.78 µg/mL) | > 10 | > 10 | > 10 | > 10 | > 10 | 20 | > 10 | > 10 | > 10 | 9.64 (≈ 3.51 µg/mL) | 9.4 (≈ 3.42 µg/mL) | 
CC(C)(C)c1ccc(C(=O)/C=C/c2ccc([N+](=O)[O-])s2)cc1 | 0.22 (≈ 0.0694 µg/mL) | 4.18 (≈ 1.32 µg/mL) | > 10 | > 10 | > 10 | > 10 | 454 | > 10 | > 10 | > 10 | 1.08 (≈ 0.341 µg/mL) | 0.92 (≈ 0.29 µg/mL) | 
Cc1cccc(C(=O)/C=C/c2ccc([N+](=O)[O-])o2)c1 | 1.27 (≈ 0.327 µg/mL) | 4.75 (≈ 1.22 µg/mL) | > 10 | > 10 | 2.23 (≈ 0.574 µg/mL) | > 10 | 43 | > 10 | > 10 | 2.39 (≈ 0.615 µg/mL) | 1.92 (≈ 0.494 µg/mL) | 0.49 (≈ 0.126 µg/mL) | 
O=C(/C=C/c1ccc([N+](=O)[O-])cc1)c1ccc(N2CCCCC2)cc1 | > 10 | > 10 | > 10 | > 10 | > 10 | > 10 |  | > 10 | > 10 | > 10 | > 10 | > 10 | 
O=C(/C=C/c1ccc([N+](=O)[O-])o1)c1ccc(-n2ccnc2)cc1 | 1.05 (≈ 0.325 µg/mL) | 6.94 (≈ 2.15 µg/mL) | > 10 | 3.18 (≈ 0.984 µg/mL) | 0.34 (≈ 0.105 µg/mL) | > 10 | 94 |  |  |  |  |  | 
O=C(/C=C/c1ccc([N+](=O)[O-])o1)c1ccc(N2CCNCC2)cc1 | 0.27 (≈ 0.0884 µg/mL) | 9.67 (≈ 3.17 µg/mL) | > 10 | > 10 | > 10 | > 10 | 359 |  |  |  |  |  | 
O=C(/C=C/c1ccc([N+](=O)[O-])o1)c1ccc(C2CCCCC2)cc1 | 0.81 (≈ 0.264 µg/mL) | 3.33 (≈ 1.08 µg/mL) | > 10 | > 10 | > 10 | > 10 | 122 |  |  |  |  |  | 
O=C(/C=C/c1ccc([N+](=O)[O-])o1)c1ccc(I)cc1 | 0.6 (≈ 0.221 µg/mL) | 4.12 (≈ 1.52 µg/mL) | > 10 | > 10 | > 10 | 4.62 (≈ 1.71 µg/mL) | 166 | > 10 | > 10 | > 10 | 2.38 (≈ 0.878 µg/mL) | 0.59 (≈ 0.218 µg/mL) | 
CC(C)(C)c1ccc(C(=O)/C=C/c2ccco2)cc1 | > 10 | > 10 | > 10 | > 10 | > 10 | > 10 |  | > 10 | > 10 | > 10 | > 10 | > 10 | 
CC(C)(C)c1ccc(C(=O)/C=C/c2ccc([N+](=O)[O-])o2)cc1 | 0.35 (≈ 0.105 µg/mL) | > 10 | > 10 | > 10 | > 10 | > 10 | 284 |  |  |  |  |  | 
Cc1ccccc1C(=O)/C=C/c1ccc([N+](=O)[O-])o1 | 0.57 (≈ 0.147 µg/mL) | 4.59 (≈ 1.18 µg/mL) | 6.36 (≈ 1.64 µg/mL) | > 10 | 1.09 (≈ 0.28 µg/mL) | 9.5 (≈ 2.44 µg/mL) | 41 | > 10 | > 10 | > 10 | 3.04 (≈ 0.782 µg/mL) | 1.16 (≈ 0.298 µg/mL) | 
CSc1ccc(C(=O)/C=C/c2ccc([N+](=O)[O-])s2)cc1 | 0.45 (≈ 0.137 µg/mL) | 5.96 (≈ 1.82 µg/mL) | > 10 | > 10 | > 10 | > 10 | 222 | > 10 | > 10 | > 10 | 6.89 (≈ 2.1 µg/mL) | 3.86 (≈ 1.18 µg/mL) | 
O=C(/C=C/c1ccco1)c1ccc(N2CCCCC2)cc1 | > 10 | > 10 | > 10 | > 10 | > 10 | > 10 |  | > 10 | > 10 | > 10 | > 10 | > 10 | 
O=C(/C=C/c1ccc([N+](=O)[O-])o1)c1ccc(-c2ccccc2)cc1 | 3.91 (≈ 1.25 µg/mL) | 3.18 (≈ 1.02 µg/mL) | > 10 | > 10 | > 10 | > 10 | 25 | > 10 | > 10 | > 10 | 1.27 (≈ 0.406 µg/mL) | 0.49 (≈ 0.156 µg/mL) | 
O=C(/C=C/c1ccc([N+](=O)[O-])s1)c1ccc(-n2ccnc2)cc1 | 0.19 (≈ 0.0618 µg/mL) | 1.73 (≈ 0.563 µg/mL) | > 10 | > 10 | 0.28 (≈ 0.0911 µg/mL) | 4.39 (≈ 1.43 µg/mL) | 225 | 4.7 (≈ 1.53 µg/mL) | 1.63 (≈ 0.53 µg/mL) | > 10 | 2.1 (≈ 0.683 µg/mL) | 0.56 (≈ 0.182 µg/mL) | 
CSc1ccc(C(=O)/C=C/c2ccco2)cc1 | > 10 | > 10 | > 10 | > 10 | > 10 | > 10 |  | > 10 | > 10 | > 10 | > 10 | > 10 | 
CCCCc1ccc(C(=O)/C=C/c2ccc([N+](=O)[O-])s2)cc1 | 0.54 (≈ 0.17 µg/mL) | 5.56 (≈ 1.75 µg/mL) | > 10 | > 10 | > 10 | > 10 | 81 | > 10 | > 10 | > 10 | 2.14 (≈ 0.675 µg/mL) | 1.73 (≈ 0.546 µg/mL) | 
CCCCc1ccc(C(=O)/C=C/c2ccc([N+](=O)[O-])o2)cc1 | 1.31 (≈ 0.392 µg/mL) | 4.21 (≈ 1.26 µg/mL) | > 10 | > 10 | 2.23 (≈ 0.667 µg/mL) | > 10 | 57 | > 10 | > 10 | > 10 | 3.07 (≈ 0.919 µg/mL) | 0.58 (≈ 0.174 µg/mL) | 
O=C(/C=C/c1ccc([N+](=O)[O-])o1)c1cccc(Br)c1 | 1.32 (≈ 0.425 µg/mL) | 5.65 (≈ 1.82 µg/mL) | > 10 | > 10 | 1.68 (≈ 0.541 µg/mL) | 4.84 (≈ 1.56 µg/mL) | 52 | > 10 | > 10 | > 10 | 2.95 (≈ 0.95 µg/mL) | 1.65 (≈ 0.531 µg/mL) | 
CSc1ccc(C(=O)/C=C/c2ccc([N+](=O)[O-])o2)cc1 | 0.66 (≈ 0.191 µg/mL) | 5.07 (≈ 1.47 µg/mL) | > 10 | > 10 | 0.58 (≈ 0.168 µg/mL) | 4.81 (≈ 1.39 µg/mL) | 61 | > 10 | 4.66 (≈ 1.35 µg/mL) | > 10 | 1.39 (≈ 0.402 µg/mL) | 0.3 (≈ 0.0868 µg/mL) | 
CC(C)(C)c1ccc(C(=O)/C=C/c2ccc[nH]2)cc1 | > 10 | > 10 | > 10 | > 10 | > 10 | > 10 |  | > 10 | > 10 | > 10 | > 10 | > 10 | 
CO[C@H]1/C=C/O[C@@]2(C)Oc3c(C)c(O)c4c(O)c(c(/C=N/N5CCN(C)CC5)c(O)c4c3C2=O)NC(=O)/C(C)=C\C=C\[C@H](C)[C@H](O)[C@@H](C)[C@@H](O)[C@@H](C)[C@H](OC(C)=O)[C@@H]1C [RIFAMPIN] | 0.05 (≈ 0.0411 µg/mL) | 0.19 (≈ 0.156 µg/mL) |  |  |  | > 10 |  |  |  |  |  |  | 2000
